Data: paper PMC11079024, “Identification of a family of species-selective complex I inhibitors as potential anthelmintics” (Nature Communications, 2024)
“And” between values parts separate entries of the source, which are not always exact repeats. Equal values may be shown once. Read-outs that look alike come from different tables or passages of the source.

Target: C. elegans (N2) complex I (NADH:ubiquinone oxidoreductase) (Caenorhabditis elegans, UniProt P24887+Q93873+Q94360)
Experiment: biochemical
Format: biochemical
Summary of the method: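 Compounds were tested against freeze-thawed isolated mitochondria (0.2 mg/mL protein). NADH:decylubiquinone activity was monitored via DCIP absorbance at 600 nm, and the initial linear slope was normalised to solvent controls.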

[1] = C. elegans, Mean of replicates, read-out: Complex I activity, dose-response data
[2] = C. elegans, individual replicates (Rep), read-out: Complex I activity, dose-response data

C. elegans (N2) complex I (NADH:ubiquinone oxidoreductase), sequence (Q94360 17-199): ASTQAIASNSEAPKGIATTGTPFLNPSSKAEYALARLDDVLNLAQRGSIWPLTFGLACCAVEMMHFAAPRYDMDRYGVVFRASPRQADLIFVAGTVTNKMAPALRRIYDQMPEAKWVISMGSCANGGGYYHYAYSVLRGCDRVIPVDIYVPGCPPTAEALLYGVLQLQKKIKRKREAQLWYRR
C. elegans (N2) complex I (NADH:ubiquinone oxidoreductase), sequence (P24887 whole entry): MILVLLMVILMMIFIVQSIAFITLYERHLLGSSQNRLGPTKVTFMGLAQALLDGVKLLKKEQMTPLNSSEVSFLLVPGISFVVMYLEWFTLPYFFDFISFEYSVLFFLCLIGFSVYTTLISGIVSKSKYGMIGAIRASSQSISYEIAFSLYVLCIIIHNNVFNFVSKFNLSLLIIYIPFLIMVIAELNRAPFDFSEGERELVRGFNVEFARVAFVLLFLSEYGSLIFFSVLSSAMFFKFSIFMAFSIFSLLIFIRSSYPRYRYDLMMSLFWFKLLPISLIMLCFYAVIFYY
C. elegans (N2) complex I (NADH:ubiquinone oxidoreductase), sequence (Q93873 31-482): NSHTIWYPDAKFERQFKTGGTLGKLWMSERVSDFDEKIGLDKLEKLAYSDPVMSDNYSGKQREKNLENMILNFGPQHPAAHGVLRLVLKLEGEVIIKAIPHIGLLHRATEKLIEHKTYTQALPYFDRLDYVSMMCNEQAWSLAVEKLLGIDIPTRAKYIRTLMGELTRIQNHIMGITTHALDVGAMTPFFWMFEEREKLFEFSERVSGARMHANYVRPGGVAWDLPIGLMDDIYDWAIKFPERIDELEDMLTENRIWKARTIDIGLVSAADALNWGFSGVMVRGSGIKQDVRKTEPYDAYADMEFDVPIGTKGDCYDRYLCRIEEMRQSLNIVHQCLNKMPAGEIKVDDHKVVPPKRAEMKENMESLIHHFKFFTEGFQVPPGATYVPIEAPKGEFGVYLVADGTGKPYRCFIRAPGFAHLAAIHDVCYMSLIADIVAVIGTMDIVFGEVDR

SMILES: COc1cc2c(cc1OC)C(/C=C/c1ccc(N(C)C)cc1)=NCC2 [NPD6303]
- remaining activity at 3 µM (3 µM, wild-type C. elegans mitochondria, single replicate, read-out: percent (%) in vitro complex I activity relative to solvent control): 82.5%
- remaining activity at 15 µM (15 µM, wild-type C. elegans mitochondria, mean of replicates, read-out: percent (%) in vitro complex I activity relative to solvent control): 47.6%
- remaining activity at 37.5 µM (37.5 µM, wild-type C. elegans mitochondria, mean of replicates, read-out: percent (%) in vitro complex I activity relative to solvent control): 15%
- remaining activity at 75 µM (75 µM, wild-type C. elegans mitochondria, mean of replicates, read-out: percent (%) in vitro complex I activity relative to solvent control): 9.53%
- activity at 100 µM (100 µM compound, relative to solvent control, mean (SEM), read-out: % Activity Complex I): 12.7%
- Percent in vitro activity, Complex I (single replicate Rep1-Rep4) (100 μM of NPD compound, C. elegans mitochondria, individual biological replicates, 100 µM): 10.460% and 12.057% and 12.075%
- activity at 100 µM (100 μM of NPD compound, C. elegans mitochondria, individual biological replicates, read-out: Percent in vitro activity, Complex I (single replicate Rep1-Rep4)): 16.4%
- activity at 100 µM (100 μM of NPD compound, C. elegans mitochondria, mean of four biological replicates, read-out: Percent in vitro activity, Complex I (Mean)): 12.7%
- activity at 0.0001 µM (C. elegans, dose 0.0001 µM, Mean of replicates, read-out: Complex I activity, dose-response data): 98.7%
- Complex I activity, dose-response data (C. elegans, dose 0.0001 µM, individual replicates (Rep)): 97.469 and 99.188
- activity at 0.0001 µM (C. elegans, dose 0.0001 µM, individual replicates (Rep), read-out: Complex I activity, dose-response data): 101%
- activity at 0.0005 µM [1]: 100%
- activity at 0.0005 µM [2]: 100%
- activity at 0.001 µM (C. elegans, dose 0.001 µM, Mean of replicates, read-out: Complex I activity, dose-response data): 98.7%
- Complex I activity, dose-response data (C. elegans, dose 0.001 µM, individual replicates (Rep)): 94.995 and 103.570
- activity at 0.001 µM (C. elegans, dose 0.001 µM, individual replicates (Rep), read-out: Complex I activity, dose-response data): 101%
- activity at 0.0025 µM (C. elegans, dose 0.0025 µM, Mean of replicates, read-out: Complex I activity, dose-response data): 103%
- Complex I activity, dose-response data (C. elegans, dose 0.0025 µM, individual replicates (Rep)): 97.419 and 110.831
- activity at 0.0025 µM (C. elegans, dose 0.0025 µM, individual replicates (Rep), read-out: Complex I activity, dose-response data): 106%
- activity at 0.005 µM (C. elegans, dose 0.005 µM, Mean of replicates, read-out: Complex I activity, dose-response data): 99.6%
- Complex I activity, dose-response data (C. elegans, dose 0.005 µM, individual replicates (Rep)): 94.468 and 104.617
- activity at 0.005 µM (C. elegans, dose 0.005 µM, individual replicates (Rep), read-out: Complex I activity, dose-response data): 105%
- activity at 0.013 µM (C. elegans, dose 0.013 µM, Mean of replicates, read-out: Complex I activity, dose-response data): 97.2%
- Complex I activity, dose-response data (C. elegans, dose 0.013 µM, individual replicates (Rep)): 91.183 and 107.524
- activity at 0.013 µM (C. elegans, dose 0.013 µM, individual replicates (Rep), read-out: Complex I activity, dose-response data): 98.9%
- activity at 0.025 µM (C. elegans, dose 0.025 µM, Mean of replicates, read-out: Complex I activity, dose-response data): 97.1%
- Complex I activity, dose-response data (C. elegans, dose 0.025 µM, individual replicates (Rep)): 90.226 and 107.714
- activity at 0.025 µM (C. elegans, dose 0.025 µM, individual replicates (Rep), read-out: Complex I activity, dose-response data): 100%
- activity at 0.063 µM (C. elegans, dose 0.063 µM, Mean of replicates, read-out: Complex I activity, dose-response data): 95.9%
- Complex I activity, dose-response data (C. elegans, dose 0.063 µM, individual replicates (Rep)): 89.273 and 101.913
- activity at 0.063 µM (C. elegans, dose 0.063 µM, individual replicates (Rep), read-out: Complex I activity, dose-response data): 103%
- activity at 0.125 µM (C. elegans, dose 0.125 µM, Mean of replicates, read-out: Complex I activity, dose-response data): 93.1%
- Complex I activity, dose-response data (C. elegans, dose 0.125 µM, individual replicates (Rep)): 87.998 and 93.858
- activity at 0.125 µM (C. elegans, dose 0.125 µM, individual replicates (Rep), read-out: Complex I activity, dose-response data): 103%
- activity at 0.313 µM (C. elegans, dose 0.313 µM, Mean of replicates, read-out: Complex I activity, dose-response data): 88%
- Complex I activity, dose-response data (C. elegans, dose 0.313 µM, individual replicates (Rep)): 86.077 and 96.329
- activity at 0.313 µM (C. elegans, dose 0.313 µM, individual replicates (Rep), read-out: Complex I activity, dose-response data): 83.6%
- activity at 0.625 µM (C. elegans, dose 0.625 µM, Mean of replicates, read-out: Complex I activity, dose-response data): 108%
- Complex I activity, dose-response data (C. elegans, dose 0.625 µM, individual replicates (Rep)): 108.371 and 107.823
- activity at 0.625 µM (C. elegans, dose 0.625 µM, individual replicates (Rep), read-out: Complex I activity, dose-response data): 106%
- activity at 1.5 µM [1]: 100%
- activity at 1.5 µM [2]: 100%
- activity at 3 µM (C. elegans, dose 3 µM, Mean of replicates, read-out: Complex I activity, dose-response data): 89.5%
- Complex I activity, dose-response data (C. elegans, dose 3 µM, individual replicates (Rep)): 88.910 and 97.542
- activity at 3 µM (C. elegans, dose 3 µM, individual replicates (Rep), read-out: Complex I activity, dose-response data): 82.5%
- activity at 15 µM (C. elegans, dose 15 µM, Mean of replicates, read-out: Complex I activity, dose-response data): 47.6%
- Complex I activity, dose-response data (C. elegans, dose 15 µM, individual replicates (Rep)): 33.770 and 49.973 and 56.558
- activity at 37.5 µM (C. elegans, dose 37.5 µM, Mean of replicates, read-out: Complex I activity, dose-response data): 15%
- Complex I activity, dose-response data (C. elegans, dose 37.5 µM, individual replicates (Rep)): 10.655 and 12.339 and 24.559
- activity at 75 µM (C. elegans, dose 75 µM, Mean of replicates, read-out: Complex I activity, dose-response data): 9.53%
- Complex I activity, dose-response data (C. elegans, dose 75 µM, individual replicates (Rep)): 11.807 and 4.396 and 17.534
- IC50 (wild-type (N2) mitochondria, read-out: C. elegans Complex I IC50): 11.9 µM and 11 µM
